Experimental data from US20190185417A1, “NOVEL ANTIBIOTICS” (priority 2016, published 2019).
≈ marks a conversion by molar mass, not a printed value.

Legend:
Format in all cases: cell-based
[1] = tested on: Enterococcus faecium, VanA (ATCC 700221); assay: MIC by broth microdilution; conditions: Table 1, Example 1
Method: (§1) The antibacterial potency of the test article(s) was measured using the in vitro broth microdilution assay under assay conditions described by the Clinical and Laboratory Standards Institute. […] The test substance was dissolved in 100% DMSO, suspended completely by sonication or vortexing, diluted by 2-fold serial titrations in the same vehicle, for a total of 11 test concentrations. A 4 μL aliquot of each dilution was added to 196 μL of broth medium seeded with the organism suspension in wells of a 96 well plate (bacterial count: 2−8×10^5 colony forming units/mL final). The final volume was 200 μL in each well and the final DMSO concentration was 2 percent. Following incubation for 1 day at 36° C., the test plates were visually examined and wells were scored for growth or complete growth inhibition to define the minimum inhibitory concentration. Each test substance was evaluated in duplicate and the results were reported as the duplicate test values. Vehicle-control and an active reference agent were used as blank and positive controls, respectively. Microorganisms tested were Acinetobacter baumannii (ATCC 17978), Enterococcus faecalis (ATCC 29212), Enterococcus faecium VanA (ATCC 700221), Escherichia coli (ATCC 25922), Escherichia coli efflux defective DEL-tolC (JW5503), Heamophilus influenzae (ATCC 49247), Klebsiella pneumoniae (ATCC 43816), Pseudomonas aeruginosa (ATCC 27853), Pseudomonas aeruginosa MDR (NTUH-974), Staphylococcus aureus (ATCC 29213), Staphylococcus aureus MRSA (ATCC 33591) and Streptococcous pneumoniae (ATCC 46919). H. influenzae was grown in Haemophilus Test Medium and S. pneumoniae was grown in cation adjusted Muller-Hinton Broth II with 5% lysed horse blood. All other microorganisms were grown in cation adjusted Muller-Hinton Broth II.

[2] = tested on: Staphylococcus aureus (ATCC 29213); assay: MIC by broth microdilution; conditions: Table 1, Example 1
Method: as §1

[3] = tested on: Staphylococcus aureus, MRSA (ATCC 33591); assay: MIC by broth microdilution; conditions: Table 1, Example 1
Method: as §1

[4] = tested on: Enterococcus faecalis (ATCC29212); assay: MIC by broth microdilution; conditions: Table 1, Example 1
Method: as §1

[5] = tested on: Streptococcus pneumoniae (ATCC 49619); assay: MIC by broth microdilution; conditions: Table 1, Example 1
Method: as §1

[6] = tested on: Haemophilus influenzae (ATCC 49247); assay: MIC by broth microdilution; conditions: Table 2, Example 2
Method: (§2) The antibacterial potency of the test article(s) was measured using the in vitro broth microdilution assay under assay conditions described by the Clinical and Laboratory Standards Institute. […] The test substance was dissolved in 100% DMSO (unless stated below), suspended completely by sonication or vortexing, diluted by 2-fold serial titrations in the same vehicle, for a total of 11 test concentrations. A 4 μL aliquot of each dilution was added to 196 μL of broth medium seeded with the organism suspension in wells of a 96 well plate (bacterial count: 2−8×10^5 colony forming units/mL final). The final volume was 200 μL in each well and the final DMSO concentration was 2 percent. Following incubation, the test plates were visually examined and wells were scored for growth or complete growth inhibition to define the minimum inhibitory concentration. Each test substance was evaluated in duplicate and the results below are the duplicate test values. Vehicle-control and an active reference agent were used as blank and positive controls, respectively.

[7] = tested on: Gram-negative bacteria; assay: MIC by broth microdilution, overall statement in words; conditions: Example 1, statement in words
Method: as §1, §2

[8] = tested on: Acinetobacter baumannii (ATCC 17978); assay: MIC by broth microdilution
Method: as §1, §2

[9] = tested on: Klebsiella pneumoniae (ATCC 43816); assay: MIC by broth microdilution
Method: as §1, §2

[10] = tested on: Pseudomonas aeruginosa (ATCC 27853); assay: MIC by broth microdilution
Method: as §1, §2

[11] = tested on: Pseudomonas aeruginosa, MDR (NTUH-974); assay: MIC by broth microdilution
Method: as §1, §2

[12] = tested on: Escherichia coli (ATCC 25922); assay: MIC by broth microdilution
Method: as §1, §2

[13] = tested on: Escherichia coli, efflux defective DEL-tolC (JW5503); assay: MIC by broth microdilution
Method: as §1, §2

Compound: CN(C)Cc1ccc(/C=C/c2cc(/C=C/c3ccc(CN(C)C)cc3)cc(/C=C/c3ccc(CN(C)C)cc3)c2)cc1 [Compound 2]
- MIC [1]: 2 µg/mL (≈ 3.6 µM)
- MIC [2]: 4 µg/mL (≈ 7.2 µM)
- MIC [3]: 4 µg/mL (≈ 7.2 µM)
- MIC [4]: 4 µg/mL (≈ 7.2 µM)
- MIC [5]: 32 µg/mL (≈ 57.6 µM)
- MIC [6]: >128 µg/mL
- activity against Gram-negative bacteria [7]: active
- MIC ([8]; Table 1, Example 1): 16 µg/mL (≈ 28.8 µM)
- MIC ([8]; Table 2, Example 2): 16 µg/mL (≈ 28.8 µM)
- MIC ([9]; Table 1, Example 1): 16 µg/mL (≈ 28.8 µM)
- MIC ([9]; Table 2, Example 2): 16 µg/mL (≈ 28.8 µM)
- MIC ([10]; Table 1, Example 1): 64 µg/mL (≈ 115 µM)
- MIC ([10]; Table 2, Example 2): 64 µg/mL (≈ 115 µM)
- MIC ([11]; Table 1, Example 1): 32 µg/mL (≈ 57.6 µM)
- MIC ([11]; Table 2, Example 2): 32 µg/mL (≈ 57.6 µM)
- MIC ([12]; Table 1, Example 1): 8 µg/mL (≈ 14.4 µM)
- MIC ([12]; Table 2, Example 2): 8 µg/mL (≈ 14.4 µM)
- MIC ([13]; Table 1, Example 1): 4 µg/mL (≈ 7.2 µM)
- MIC ([13]; Table 2, Example 2): 4 µg/mL (≈ 7.2 µM)
